Test results as given in the OPERA property sets (Mansouri et al. 2018).
Values after ≈ are worked out from the molar mass of the structure shown.

Compound | boiling point | log10 Henry constant (atm·m³/mol) | log10 Koc (L/kg) | log10 vapour pressure (mmHg) | melting point | log10 biodegradation half-life (days) | ready biodegradability | solubility | log10 Koa
CC(O)C(C)CO (stereo not given) | 200 °C | – | – | – | – | – | – | – | –
Clc1ccc(-c2c(Cl)cccc2Cl)c(Cl)c1 | – | -3.85 | – | – | – | – | – | – | –
O=C(Nc1ccccc1)Nc1cnns1 | – | – | 2.04 | -10.6 | – | – | – | – | –
CCOC(=O)CC1CCCCC1 | 211 °C | – | – | – | – | – | – | – | –
CCN(C(C)C)C(C)C | 126 °C | – | – | – | – | – | – | – | –
CC(Cl)Br (stereo not given) | 83 °C | – | – | 1.93 | – | – | – | – | –
CCB(CC)CC | 95 °C | – | – | – | -93 °C | – | – | – | –
C[C@]12C=CC(=O)C=C1CC[C@@H]1[C@@H]2CC[C@@]2(C)[C@H]1CC[C@]2(C)O | – | – | – | – | 164 °C | – | – | – | –
CCCCCCCCCCCCCCCCCCCCCCCCCCCCCCCC | 467 °C | – | – | – | 69.7 °C | 2.45 | readily biodegradable | – | –
CCCN(CCC)c1c([N+](=O)[O-])cc(S(C)(=O)=O)cc1[N+](=O)[O-] | – | – | 2.92 | -8.03 | 150 °C | – | not readily biodegradable | – | –
O=C(Nc1ncc([N+](=O)[O-])s1)c1cccs1 | – | – | – | – | 256 °C | – | – | – | –
CC(C)Cc1ccc(CC(=O)O)cc1 | – | – | – | – | 86 °C | – | – | – | –
Cc1cccc2c1CCCC2 | 234 °C | – | – | – | -23 °C | – | – | – | –
Nc1ccc(S(=O)(=O)Nc2ccccn2)cc1 | – | – | – | – | 192 °C | – | – | – | –
CCC(=O)OCCc1ccccc1 | 238 °C | – | – | – | – | – | – | – | –
COc1cc2c(cc1OC)C1CC(=O)C(CC(C)C)CN1CC2 (stereo not given) | – | – | – | – | 128 °C | – | – | – | –
NC(=O)c1cccc2ccccc12 | – | – | – | – | 206 °C | – | – | – | –
CNC1=Nc2ccc(Cl)cc2C(c2ccccc2)=[N+]([O-])C1 | – | – | – | – | 236 °C | – | – | – | –
CC1(C)COC1 | 80.6 °C | – | – | – | – | – | – | – | –
c1ccc2c(c1)Nc1ccccc1S2 | 371 °C | – | – | – | 188 °C | – | not readily biodegradable | – | –
CCSSCC | 154 °C | -2.67 | – | 0.631 | -102 °C | – | – | 2450 µM (≈ 300 µg/mL) | –
Cc1ncc([N+](=O)[O-])n1CC(O)CCl (stereo not given) | – | – | – | – | 77.5 °C | – | – | – | –
N#CC1CCCCC1 | – | – | – | – | 11 °C | – | – | – | –

Compound | boiling point | log10 Henry constant (atm·m³/mol) | log10 Koc (L/kg) | log10 vapour pressure (mmHg) | melting point | log10 biodegradation half-life (days) | ready biodegradability | solubility | log10 Koa
CN(C)O | – | – | – | 1.33 | 108 °C | – | – | – | –
CC(C)OC(=O)C(=O)OC(C)C | 191 °C | – | – | – | – | – | – | – | –
CN1CCN(C)CC1 | 131 °C | – | – | – | – | – | – | – | –
CCCCOC(C)C | 109 °C | – | – | – | – | – | – | – | –
CCOC(=O)CCCCCCC(=O)OCC | 283 °C | – | – | – | 5.9 °C | – | – | – | –
CCC(=NO)C(C)=NO | – | – | – | – | 172 °C | – | – | – | –
CC(=S)Nc1ccccc1 | – | – | – | – | 77.5 °C | – | – | – | –
CNCCOC(=O)/C=C1/CC[C@H]2[C@@H]([C@@H](O)C[C@@H]3[C@]2(C)CCC[C@]3(C)C(=O)OC)[C@H]1C | – | – | – | – | 115 °C | – | – | – | –
CC(=O)C#N | 92.3 °C | – | – | – | – | – | – | – | –
CCOc1ccccc1F | 171 °C | – | – | – | -16.7 °C | – | – | – | –
C=C1C[C@@]23CC[C@H]4[C@@](C)(CCC[C@@]4(C)C(=O)O[C@@H]4O[C@H](CO)[C@@H](O)[C@H](O)[C@H]4O)[C@@H]2CC[C@]1(O[C@@H]1O[C@H](CO)[C@@H](O)[C@H](O)[C@H]1O[C@@H]1O[C@H](CO)[C@@H](O)[C@H](O)[C@H]1O)C3 | – | – | – | – | 198 °C | – | – | – | –
O=C1CCC(c2ccccc2)CC1 | – | – | – | – | 79.5 °C | – | – | – | –
CC(=O)OCCN(CCOC(C)=O)c1ccc(N=Nc2nc3ccc(Cl)cc3s2)c(NC(=O)c2ccccc2)c1 | – | – | – | – | – | – | not readily biodegradable | – | –
O=C1C=CC(=O)C1 | – | – | – | – | 37 °C | – | – | – | –
FC(F)(F)c1ccc(Cl)cc1 | 138 °C | – | – | 0.882 | -33 °C | – | – | – | –
CC(C)(C)c1nnc(NS(=O)(=O)c2ccccc2)s1 | – | – | – | – | 163 °C | – | – | – | –
Brc1ccoc1 | 103 °C | – | – | – | – | – | – | – | –
O=C(O)c1ccncc1 | – | – | – | – | 315 °C | – | – | – | –
CC(=O)Nc1cccc(Cl)c1 | – | – | 1.86 | – | 80 °C | – | – | – | –
Brc1ccc(Oc2cccc(Br)c2)cc1 | – | – | – | – | – | – | – | – | 8.57
C[N+](C)(C)CCOC(=O)CCC(=O)OCC[N+](C)(C)C.[Br-].[Br-] | – | – | – | – | 225 °C | – | – | – | –
N#Cc1ccccc1OCC(O)CNCCNC(=O)Cc1ccc(O)cc1 (stereo not given) | – | – | – | – | 119 °C | – | – | – | –
O=C(OC(Cl)(Cl)Cl)C(Cl)(Cl)Cl | 192 °C | – | – | – | 34 °C | – | – | – | –

Compound | boiling point | log10 Henry constant (atm·m³/mol) | log10 Koc (L/kg) | log10 vapour pressure (mmHg) | melting point | log10 biodegradation half-life (days) | ready biodegradability | solubility | log10 Koa
COC(OC)OC | 104 °C | – | – | – | – | – | – | – | –
Clc1cc(Cl)c2c(c1)Oc1cc(Cl)c(Cl)cc1O2 | – | – | – | -8.2 | 194 °C | – | – | – | –
CC(C)(C)C(=O)CCl | 172 °C | – | – | – | -13 °C | – | – | – | –
O=C(Nc1ccc(Cl)c(Cl)c1)Nc1cc(Cl)ccc1Oc1ccc(Cl)cc1S(=O)(=O)O | – | – | – | – | – | – | not readily biodegradable | – | –
O=C=Nc1ccccc1Cl | 200 °C | – | – | – | 30.5 °C | – | – | – | –
CCCC(=O)C(C)(C)C | 147 °C | – | – | – | – | – | – | – | –
COC1CC1 | 44.7 °C | – | – | – | -119 °C | – | – | – | –
CCOC(=O)COC(=O)c1cc(Oc2ccc(C(F)(F)F)cc2Cl)ccc1[N+](=O)[O-] | – | – | – | – | 65 °C | – | – | – | –
COC(=O)c1ccco1 | 181 °C | – | – | – | – | – | – | – | –
c1ccc(Cn2ccnc2)cc1 | 310 °C | – | – | – | 69 °C | – | – | – | –
CC(C)(C)c1ccc(O)c(O)c1 | 285 °C | – | – | – | 54.3 °C | – | – | – | –
CC(C(=O)O)c1ccc(N2Cc3ccccc3C2=O)cc1 (stereo not given) | – | – | – | – | 214 °C | – | – | – | –
N#CC1CC2C=CC1C2 (stereo not given) | – | – | – | – | 13 °C | – | – | – | –
C1CCC(NC2CCCCC2)CC1 | 256 °C | – | – | -1.47 | -0.1 °C | – | readily biodegradable | – | –
Cc1cc(C2CCCCC2)n(O)c(=O)c1 | – | – | – | – | 144 °C | – | – | – | –
C=C(C)C(=O)OCC(C)C | 155 °C | – | – | 0.56 | – | – | – | – | –
Clc1ccc(C(Cl)Cl)cc1Cl | 257 °C | – | – | – | – | – | – | – | –
CN(C)CCCN | 133 °C | – | – | 1 | -60 °C | – | – | – | –
CNc1nc(NC(C)C)nc(SC)n1 | 345 °C | – | – | -6 | 85 °C | – | – | – | –
CC(C)(C)C | 9.5 °C | – | – | 3.11 | -16.4 °C | – | – | – | –
NCC(=O)O | – | – | – | – | – | – | readily biodegradable | – | –
C=CC(=C)F | 12 °C | – | – | – | – | – | – | – | –
Nc1ccncc1 | 273 °C | – | – | – | 158 °C | – | not readily biodegradable | – | –
